Columns and labels:
Format in all cases: functional, cell-based
DU-145 = test: Antiproliferative activity against human DU145 cells
NCI-H460 = test: Antiproliferative activity against human NCI-H460 cells
HCC 2998 = test: Antiproliferative activity against human HCC2998 cells
A2780 = test: Antiproliferative activity against human A2780 cells after 2 days by alamar blue assay; settings: A2780, 48 h
BT-549 = test: Antiproliferative activity against human BT549 cells

| Compound | IC50 (DU-145) [µM] | IC50 (NCI-H460) [µM] | IC50 (HCC 2998) [µM] | IC50 (A2780) [nM] | IC50 (BT-549) [µM] |
| --- | --- | --- | --- | --- | --- |
| C/C=C(/C)C(=O)O[C@H]1[C@H](OC(=O)/C(C)=C\C)[C@]2(CO)[C@H](O)[C@H](O)[C@]3(C)C(=CC[C@@H]4[C@@]5(C)CC[C@H](O[C@@H]6O[C@H](C(=O)O)[C@@H](O)[C@H](O[C@@H]7O[C@@H](CO)[C@H](O)[C@H]7O)[C@H]6O[C@@H]6O[C@H](CO)[C@@H](O)[C@H](O)[C@H]6O)C(C)(C)[C@@H]5CC[C@]43C)[C@@H]2CC1(C)C [DODONAEASIDE A] | > 5 | > 5 | > 5 | 790 | > 5 |
| C/C=C(/C)C(=O)O[C@H]1[C@H](OC(=O)[C@]2(C)O[C@@H]2C)C(C)(C)C[C@H]2C3=CC[C@@H]4[C@@]5(C)CC[C@H](O[C@@H]6O[C@H](C(=O)O)[C@@H](O)[C@H](O[C@@H]7O[C@@H](CO)[C@H](O)[C@H]7O)[C@H]6O[C@@H]6O[C@H](CO)[C@@H](O)[C@H](O)[C@H]6O)C(C)(C)[C@@H]5CC[C@@]4(C)[C@]3(C)C[C@@H](O)[C@]21CO [DODONAEASIDE B] | – | – | – | 700 | – |

— ChEMBL document CHEMBL1154254, “Antiproliferative triterpenoid saponins of Dodonaea viscosa from the Madagascar dry forest” (J Nat Prod, 2009)
